Measured values reported in patent US12416009B2, “Methods and compositions for the modification of plants” (Flagship Pioneering Innovations VI, LLC, priority 2018, dated 2025).

How the values were obtained:
Glycine max cell line = assay: Uptake of AF488-labeled lemon PMPs by plant cells (epifluorescence microscopy); type: cell-based; settings: 1×10^12 AF488-PMPs/mL, 2 hours at 24° C.
Description: (§1) Plant cell lines were purchased from the Deutsche Sammlung von Mikroorganismen und Zellkulturen (DSMZ) (Glycine max, #PC-1026; Triticum aestivum, #PC-998) and ABRC (Zea mays, Black Mexican sweet (BMS), and were grown in baffled vented 250 mL flasks in the dark, at 24° C. with agitation (110 rpm). Glycine max and Triticum aestivum were grown in 3.2 g/L Gamborg's B-5 Basal Medium with Minimal Organics supplemented (G5893, Millipore Sigma) pH 5.5, supplemented with 2% sucrose, and 2 mg/L 2,4-dichlorophenoxyacetic acid (2,4D) (D7299, Millipore Sigma) according to the supplier's instructions. BMS cells were grown in Murashige and Skoog basal medium pH 5.8, containing 4.3 g/L Murashige and Skoog Basal Salt Mixture (Sigma M5524), 2% sucrose (S0389, Millipore Sigma), 1×MS vitamin solution (M3900, Millipore Sigma), 2 mg/L 2,4-dichlorophenoxyacetic acid (D7299, Millipore Sigma) and 250 ug/L thiamine HCL (V-014, Millipore Sigma).
(§2) For treatment with AF488-PMPs, 5 mL of the cell suspensions was taken to determine the percent Pack Cell Volume (PCV). The PCV is defined as the volume of cells divided by the total volume of the cell culture aliquot, and expressed as a percentage. Cells were centrifuged for 5 min at 3900 rpm, and the volume of the cell pellet was determined. The % PCV for BMS, Glycine max, and Triticum aestivum were 20%, 15%, and 18%, respectively. For the uptake experiment, the % PCV of the cultures was adjusted to 2%, by diluting cells in their appropriate medium. Next, 125 μl of the plant cell suspensions was added to a 24 well plate, and duplicate samples were treated with 125 μl MES buffer (200 mM MES+10 mM NaCl, pH6) alone (negative control), AF488 dye only (dye only control) or a final concentration of 1×10^12 AF488-PMPs/mL diluted in MES buffer to 125 μl. Cells were incubated for 2 hours at 24° C. in the dark, washed three times with 1 mL MES buffer to remove AF488-PMPs or free dye that had not been taken up, and resuspended in 300 μL of MES buffer for imaging on an epifluorescence microscope (EVOS FL Auto 2, Invitrogen).

[1] = system: Zea mays Black Mexican sweet (BMS) cells; assay: as above; type: cell-based; settings: 1×10^12 AF488-PMPs/mL, 2 hours at 24° C.
Description: as §1, §2

[2] = system: Triticum aestivum cell line; assay: as above; type: cell-based; settings: 1×10^12 AF488-PMPs/mL, 2 hours at 24° C.
Description: as §1, §2

[3] = system: Arabidopsis thaliana seedlings; assay: Cytotoxicity of free DOX and DOX-loaded PMPs in Arabidopsis thaliana seedlings; type: in vivo, Arabidopsis thaliana Col-0; settings: 100 μM DOX dose; 24 hours exposure, then 3 days; 7-day old seedlings
Description: Grapefruit PMPs were produced and loaded with doxorubicin as described in Examples 16a and 16b. Wild type Arabidopsis thaliana Col-0 seeds were obtained from the ABRC, surface sterilized with 50% bleach, stratified for 1-3 d at 4° C., and germinated on half-strength (0.5×) Murashige and Skoog (MS) medium supplemented with 0.5% sucrose, 2.5 mM MES, pH 5.6, containing 0.8% agar, with a photoperiod of 16 h light 23° C./8 h dark 21° C.
To test whether PMPs can deliver a small molecule cargo in planta, 7-day old Arabidopsis thaliana seedlings were transferred to 0.5× liquid MS medium in a 24 well plate (1 seedling per well), and treated with free DOX or DOX-loaded PMPs with an encapsulated DOX dose of 0 (negative control), 25 μM, 50 μM and 100 μM. The plate was covered with aluminum foil and incubated for 24 hours. DOX-containing medium was removed, the seedlings were washed two times with ½×MS medium, and fresh medium was added. Seedlings were incubated for an additional 3 days under a normal photoperiod (16 h light 23° C./8 h dark 21° C.). Next, seedlings were removed from the plate and towel-dried for imaging and cytotoxicity was assessed by analyzing leaf vigor, leaf color and root length. Cytotoxicity is defined by shortening of the roots, loss of leaf vigor, and leaf discoloration (yellow instead of green) when compared to an untreated seedling control.

plants = settings: Culiarez-Mac et al, Plant Growth Regulation 1987; cited from earlier work

With “Alexa Fluor 488® NHS Ester [AF488 dye only]” the “AF488 fluorescence signal in cells (PMP uptake)” value (“AF488 fluorescence signal” for short) (Glycine max cell line) was “no detectable fluorescence”, the “AF488 fluorescence signal” value [1] was “no detectable fluorescence” and the “AF488 fluorescence signal” value [2] was “no detectable fluorescence”.
In the case of `COc1cccc2c1C(=O)c1c(O)c3c(c(O)c1C2=O)C[C@@](O)(C(=O)CO)C[C@@H]3O[C@H]1C[C@H](N)[C@H](O)[C@H](C)O1` [free DOX, doxorubicin], the “cytotoxicity (root shortening, loss of leaf vigor, leaf discoloration)” value [3] is listed as “root shortening and leaf discoloration” and the cytotoxicity in plants (plants) is listed as “cytotoxic in plants”.
